Source: paper PMC10482825 (Scientific Reports, 2023)

How the values were obtained:
[1] = tested on: V. parahaemolyticus; test: Micro-broth dilution MIC / MBC; assay type: cell-based, Vibrio parahaemolyticus (ATCC, 17802); settings: 37 °C
From the text: (§1) The microbial strains used in this study were Bacillus subtilis (ATCC, 11774), Candida albicans (TIMM, 1768), Enterococcus faecalis (ATCC, 33186), Escherichia coli (ATCC, 11775), Klebsiella pneumoniae (ATCC, 13883), Methicillin-resistant Staphylococcus aureus (ATCC, BAA-41), Pseudomonas aeruginosa (ATCC, 10145), Salmonella enterica (ATCC, 14028), Serratia marcescens (ATCC, 13880), Staphylococcus aureus (ATCC, 25923) and Vibrio parahaemolyticus (ATCC, 17802). All microbial strains were cultivated overnight at 37 °C and 200 rpm, then subcultured and incubated for 3 h under the same incubation conditions to obtain the mid-logarithmic growth phase. The cultivated cells were washed twice with 10 mM Tris–HCl containing 5 mM D-glucose at pH 7.4 and suspended in the same buffer to be used in different assays, as previously described.
As a conclusive quantitative assessment, broth microtiter assay was used to determine the MIC values of each cryptide against B. subtilis, MRSA, S. enterica, P. aeruginosa, V. parahaemolyticus and C. albicans by following the guidelines of the Clinical and Laboratory Standards Institute (CLSI)[67], with slight modifications. […] MIC was detected as the lowest concentration of each cryptide that prevents the optically detectable microbial growth at OD = 600 nm.

[2] = tested on: S. marcescens; test: Radial diffusion assay; assay type: cell-based, Serratia marcescens (ATCC, 13880); settings: 5 µl of 500 µM per 3 mm well, 37 °C, mean ± SD
From the text: as §1
(§2) The antimicrobial activity spectra of the selected cryptides were screened against all the mentioned microbial pathogens, except V. parahaemolyticus, by radial diffusion assay as previously described, with slight modifications. […] The plates were then incubated for 18 h, and the antimicrobial activities were measured in the absolute unit (AU), as previously described. […]
(§3) plate. The plates were then incubated for 12 h at 37 °C and antimicrobial activities were measured in the term of absolute unit (A.U). […]

[3] = tested on: C. albicans; test: Radial diffusion assay; assay type: cell-based, Candida albicans (TIMM, 1768); settings: 5 µl of 500 µM per 3 mm well, 37 °C, mean ± SD
From the text: as §1, §2, §3

With “RHCLRSKRPPNVCPH [AD4, cationic cryptide from P. vannamei precursor DN34505 (Pl-crustin 2), chemically synthesised]” the “MBC (µM) V. parahaemolyticus” value ([1]; 20 µl of wells without growth on agar, 18 h) was greater than 50 µM, the “MIC (µM) V. parahaemolyticus” value ([1]; micro-broth dilution, 3 h peptide treatment then MHB 18 h, OD 600 nm) was greater than 50 µM and the “Antimicrobial activity (inhibition zone) S. marcescens” value [2] was 0 A.U. The “Antifungal activity (inhibition zone) C. albicans” value [3] was 2.1 ± 0.5 A.U.
